{"source": "patent US9277748B2", "about": "“Agonist/antagonist compositions and methods of use” (The United States of America, as represented by the …, priority 2010, dated 2016)", "key": {"[1]": {"molecular_target": "CHO cells expressing TRPV1 (CHO-rTRPV1) (Rattus norvegicus, UniProt O35433)", "sequence (O35433 whole entry)": "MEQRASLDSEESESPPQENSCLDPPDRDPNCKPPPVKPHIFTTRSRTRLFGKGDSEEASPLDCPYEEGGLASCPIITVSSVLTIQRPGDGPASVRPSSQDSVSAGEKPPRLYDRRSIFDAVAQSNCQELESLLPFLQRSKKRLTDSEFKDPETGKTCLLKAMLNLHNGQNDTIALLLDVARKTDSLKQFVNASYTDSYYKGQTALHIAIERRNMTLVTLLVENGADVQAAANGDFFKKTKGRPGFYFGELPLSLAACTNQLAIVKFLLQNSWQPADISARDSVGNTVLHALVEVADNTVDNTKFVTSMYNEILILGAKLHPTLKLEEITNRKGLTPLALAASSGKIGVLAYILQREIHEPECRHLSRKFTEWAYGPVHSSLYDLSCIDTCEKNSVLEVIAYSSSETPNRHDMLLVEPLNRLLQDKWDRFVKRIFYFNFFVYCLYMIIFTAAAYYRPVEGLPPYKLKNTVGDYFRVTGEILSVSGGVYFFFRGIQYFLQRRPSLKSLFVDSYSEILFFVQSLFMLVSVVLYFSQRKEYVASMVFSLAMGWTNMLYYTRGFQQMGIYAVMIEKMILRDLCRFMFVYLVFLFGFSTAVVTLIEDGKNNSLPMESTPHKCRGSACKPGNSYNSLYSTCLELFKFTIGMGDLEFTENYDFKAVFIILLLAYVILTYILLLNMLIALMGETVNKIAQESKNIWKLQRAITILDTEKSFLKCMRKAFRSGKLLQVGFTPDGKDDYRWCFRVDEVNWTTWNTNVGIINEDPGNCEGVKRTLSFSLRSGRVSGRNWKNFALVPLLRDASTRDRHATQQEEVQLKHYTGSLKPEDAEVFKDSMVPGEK", "assay": "Intracellular Ca2+ imaging, agonist and antagonist added simultaneously", "type": "cell-based", "experimental": "The stable CHO cell clone expressing rTRPV1 (Tet-Off) was the generous gift of James E. Krause and Daniel N. Cortwright (Neurogen Corp., Branford, Conn., USA). These cells were cultured in maintaining medium (HAM F-12 supplemented with 10% FBS (USA sourced, Atlanta biologicals, Lawrenceville, Ga., USA), 25 mM HEPES, pH 7.5, 250 μg/ml geneticin (F-12, HEPES, and geneticin are from Invitrogen, Carlsbad, Calif., USA) and 1 mg/L tetracycline (Calbiochem, La Jolla, Calif., USA).\nCHO-rTRPV1 cells were seeded on 25 mm round glass coverslips in 35×10 mm tissue culture dishes in maintaining medium. After 24 hours, the medium was replaced with inducing medium (maintaining medium without geneticin and tetracycline, but containing 1 mM sodium butyrate) to induce TRPV1 expression. Experiments were performed approximately 24 hours after induction. For fura-2 AM (Invitrogen, Carlsbad, Calif., USA) loading, the cells were incubated in DPBS containing calcium and magnesium (Invitrogen, Carlsbad, Calif., USA), 0.5 mg/ml BSA (Sigma, St. Louis, Mo., USA), and 5 μM Fura-2 AM for 2 hours in the dark at 20° C. After 2 hours, the loaded cells were washed 2× with DPBS without calcium and magnesium and immersed in maintaining medium until the measurements. The measurements were carried out in DPBS containing calcium and magnesium, plus 0.5 mg/ml BSA. The fluorescence of individual cells treated simultaneously with a single dose of agonist and antagonist was measured with an InCyt Im2 fluorescence imaging system (Intracellular Imaging, Cincinnati, Ohio, USA). The cells within the selected field were illuminated alternately at 340 and 380 nm. Emitted light >510 nm was measured. To determine the approximate intracellular Ca^2+ concentrations, the system was calibrated using a fura-2 calibration kit (Invitrogen, Carlsbad, Calif., USA). Data were analyzed with the Incyt software and tabulated with Microsoft Excel spreadsheet and graphed with Origin 6.0 (OriginLab Corp., Northhampton, Mass., USA) software.\nThe TRPV1 agonist and antagonist were added simultaneously to fura-2 AM loaded CHO-rTRPV1 cells after 90 seconds from the beginning of the measurement (baseline) and monitored continuously for an additional 10 minutes. Inhibition values were compared to the maximally effective dose of capsaicin (300 nM) in the same experiment (see FIGS. 2A-2E) or to the indicated concentration of capsaicin (see FIGS. 3A-3E). Experiments were performed three times, each on different days with approximately 30-49 cells measured."}, "[2]": {"system": "subjects", "conditions": "cited from earlier work"}}, "note": "“Also recorded” adds a separate entry of the source. Read-outs that look alike come from different tables or passages of the source.", "data": [{"molecule": "CC(C)(C)c1ccc(/C=C/C(=O)Nc2ccc3c(c2)OCCO3)cc1", "note": "[AMG9810]", "values": [{"measurement": "initial response to capsaicin as ratio of antagonist to agonist is raised", "setting": "[1]", "value": "decrease in the initial response to capsaicin"}]}, {"molecule": "CC(C)(C)c1ccc(NC(=O)N2CCN(c3ncccc3Cl)CC2)cc1", "note": "[BCTC]", "values": [{"measurement": "suitability of antagonist combined with capsaicin to give the desired properties", "setting": "[1]", "value": "appropriate ratios of antagonist to agonist exist; also recorded: give the desired properties"}]}, {"molecule": "C=C(C)[C@]12C[C@@H](C)[C@@]34O[C@](Cc5ccccc5)(O[C@@H]1[C@@H]3C=C(COC(=O)Cc1cc(I)c(O)c(OC)c1)C[C@]1(O)C(=O)C(C)=C[C@@H]41)O2", "note": "[Iodo-RTX]", "values": [{"measurement": "suitability of antagonist combined with capsaicin to give the desired properties", "setting": "[1]; criterion: maximal response to agonist decreased by not more than 20%, response reduced by at least 80% later, FIGS. 2 and 3", "value": "give the desired properties"}, {"measurement": "suitability of antagonist combined with capsaicin to give the desired properties", "setting": "[1]; criterion: maximal response to agonist decreased by not more than 20%, response reduced by at least 80% later, FIGS. 2 and 3, listed as IodoRTX", "value": "appropriate ratios of antagonist to agonist exist"}]}, {"molecule": "COc1cc(CNC(=O)CCCC/C=C/C(C)C)ccc1O", "note": "[capsaicin, trans-8-methyl-N-vanillyl-6-nonenamide]", "values": [{"measurement": "intracellular calcium response to agonist", "setting": "[1]; CHO cells expressing TRPV1, FIGS. 2A-2E", "value": "persistent elevation of intracellular calcium"}, {"measurement": "maximally effective dose", "setting": "[1]; fura-2 AM loaded CHO-rTRPV1 cells", "value": 300, "unit": "nM"}, {"measurement": "proper inflammation", "setting": "[2]; at 0.90% concentration, small population of individuals", "value": "does not achieve proper inflammation"}, {"measurement": "proper inflammation", "setting": "[2]; at 1.45% concentration", "value": "all subjects achieve proper inflammation"}, {"measurement": "most potent level that can be delivered without potential hazards", "setting": "[2]; concentration in spray", "value": 1.45, "unit": "%"}]}, {"molecule": "Oc1cc2c(cc1O)CN(C(=S)NCCc1ccc(Cl)cc1)CCC2", "note": "[capsazepine]", "values": [{"measurement": "initial response to capsaicin as ratio of antagonist to agonist is raised", "setting": "[1]; FIG. 2D and FIG. 2E", "value": "decrease in the initial response to capsaicin"}]}]}
